Measurements: ChEMBL document CHEMBL3885881, “DrugMatrix”

Species on record: Rattus norvegicus
Assay: DrugMatrix - Regimen: Daily Repeat
Type: toxicity, organism-based, Sprague-Dawley
Design: regimen Daily Repeat, gender Male, age 6-8 weeks
Details: in vivo, po, route oral GAVAGE, […]; for ABSOLUTE BASOPHIL / ABSOLUTE EOSINOPHIL / ABSOLUTE LYMPHOCYTE / ABSOLUTE MONOCYTE / ABSOLUTE SEGMENTED NEUTROPHIL / BASOPHIL / EOSINOPHIL / ERYTHROCYTE COUNT / HEMATOCRIT / HEMOGLOBIN / LEUKOCYTE COUNT / LYMPHOCYTE / MEAN CORPUSCULAR HEMOGLOBIN / MEAN CORPUSCULAR HEMOGLOBIN CONCENTRATION / MEAN CORPUSCULAR VOLUME / MONOCYTE / NEUTROPHIL / NUCLEATED RED BLOOD CELLS / PLATELET COUNT: tissue Blood; for ALANINE AMINOTRANSFERASE / ALBUMIN / ALKALINE PHOSPHATASE / ASPARTATE AMINOTRANSFERASE / BLOOD UREA NITROGEN / CARBON DIOXIDE / CHLORIDE / CHOLESTEROL / CREATINE PHOSPHOKINASE / CREATININE / GLUCOSE / LACTATE DEHYDROGENASE / LIPASE / PHOSPHORUS / POTASSIUM / SODIUM / TOTAL BILIRUBIN / TOTAL PROTEIN / URIC ACID: tissue Plasma
[1] = 280 mg/kg, 120 h, dose level High, time 5 day
[2] = 72 h, dose 2.8 mg/Kg, dose level Low, time 3 day
[3] = 120 h, dose 2.8 mg/Kg, dose level Low, time 5 day

CC/C(=C(/CC)c1ccc(O)cc1)c1ccc(O)cc1 [DIETHYLSTILBESTROL]
ABSOLUTE BASOPHIL [1]: 0 CELLS/uL
ABSOLUTE EOSINOPHIL [1]: 0 CELLS/uL
ABSOLUTE LYMPHOCYTE [1]: 5802 CELLS/uL
ABSOLUTE MONOCYTE [1]: 16.67 CELLS/uL
ABSOLUTE SEGMENTED NEUTROPHIL [1]: 514.67 CELLS/uL
BASOPHIL [1]: 0%
EOSINOPHIL [1]: 0%
ERYTHROCYTE COUNT [1]: 5.3 x10E6/uL
HEMATOCRIT [1]: 33.4%
HEMOGLOBIN [1]: 12.67 G/DL
LEUKOCYTE COUNT [1]: 6.33 x10E3/uL
LYMPHOCYTE [1]: 91.33%
MEAN CORPUSCULAR HEMOGLOBIN [1]: 23.9 pg
MEAN CORPUSCULAR HEMOGLOBIN CONCENTRATION [1]: 37.97 G/DL
MEAN CORPUSCULAR VOLUME [1]: 62.97 fL
MONOCYTE [1]: 0.33%
NEUTROPHIL [1]: 8.33%
NUCLEATED RED BLOOD CELLS [1]: 0.33 /100WBC
PLATELET COUNT [1]: 1806.33 x10E3/uL
ALANINE AMINOTRANSFERASE [1]: 47.33 u/L
ALBUMIN [1]: 3.6 G/DL
ALKALINE PHOSPHATASE [1]: 594.67 u/L
ASPARTATE AMINOTRANSFERASE [1]: 59 u/L
BLOOD UREA NITROGEN [1]: 14 mg/dL
CARBON DIOXIDE [1]: 28.33 mmol/L
CHLORIDE [1]: 100 MEQ/L
CHOLESTEROL [1]: 35 mg/dL
CREATINE PHOSPHOKINASE [1]: 88.33 u/L
CREATININE [1]: 0.3 mg/dL
GLUCOSE [1]: 144.67 mg/dL
LACTATE DEHYDROGENASE [1]: 47.33 u/L
LIPASE [1]: 9 u/L
PHOSPHORUS [1]: 9.33 mg/dL
POTASSIUM [1]: 5.01 MEQ/L
SODIUM [1]: 147.6 MEQ/L
TOTAL BILIRUBIN [1]: 0.6 mg/dL
TOTAL PROTEIN [1]: 6.27 G/DL
URIC ACID [1]: 0.3 mg/dL
ABSOLUTE BASOPHIL [2]: 0 CELLS/uL
ABSOLUTE EOSINOPHIL [2]: 0 CELLS/uL
ABSOLUTE LYMPHOCYTE [2]: 8607.33 CELLS/uL
ABSOLUTE MONOCYTE [2]: 102 CELLS/uL
ABSOLUTE SEGMENTED NEUTROPHIL [2]: 1057.33 CELLS/uL
BASOPHIL [2]: 0%
EOSINOPHIL [2]: 0%
ERYTHROCYTE COUNT [2]: 5.52 x10E6/uL
HEMATOCRIT [2]: 33.53%
HEMOGLOBIN [2]: 13.07 G/DL
LEUKOCYTE COUNT [2]: 9.77 x10E3/uL
LYMPHOCYTE [2]: 88%
MEAN CORPUSCULAR HEMOGLOBIN [2]: 23.73 pg
MEAN CORPUSCULAR HEMOGLOBIN CONCENTRATION [2]: 39.03 G/DL
MEAN CORPUSCULAR VOLUME [2]: 60.87 fL
MONOCYTE [2]: 1%
NEUTROPHIL [2]: 11%
NUCLEATED RED BLOOD CELLS [2]: 0 /100WBC
PLATELET COUNT [2]: 1167 x10E3/uL
ALANINE AMINOTRANSFERASE [2]: 57.33 u/L
ALBUMIN [2]: 3.83 G/DL
ALKALINE PHOSPHATASE [2]: 627.67 u/L
ASPARTATE AMINOTRANSFERASE [2]: 71 u/L
BLOOD UREA NITROGEN [2]: 7.67 mg/dL
CARBON DIOXIDE [2]: 26.67 mmol/L
CHLORIDE [2]: 105.33 MEQ/L
CHOLESTEROL [2]: 24.33 mg/dL
CREATINE PHOSPHOKINASE [2]: 222.33 u/L
CREATININE [2]: 0.12 mg/dL
GLUCOSE [2]: 155.33 mg/dL
LACTATE DEHYDROGENASE [2]: 64 u/L
LIPASE [2]: 8 u/L
PHOSPHORUS [2]: 9.27 mg/dL
POTASSIUM [2]: 5.23 MEQ/L
SODIUM [2]: 147.13 MEQ/L
TOTAL BILIRUBIN [2]: 0.13 mg/dL
TOTAL PROTEIN [2]: 5.6 G/DL
URIC ACID [2]: 0.6 mg/dL
ABSOLUTE BASOPHIL [3]: 0 CELLS/uL
ABSOLUTE EOSINOPHIL [3]: 46 CELLS/uL
ABSOLUTE LYMPHOCYTE [3]: 6817.67 CELLS/uL
ABSOLUTE MONOCYTE [3]: 68 CELLS/uL
ABSOLUTE SEGMENTED NEUTROPHIL [3]: 335 CELLS/uL
BASOPHIL [3]: 0%
EOSINOPHIL [3]: 0.67%
ERYTHROCYTE COUNT [3]: 5.68 x10E6/uL
HEMATOCRIT [3]: 36.33%
HEMOGLOBIN [3]: 13.8 G/DL
LEUKOCYTE COUNT [3]: 7.27 x10E3/uL
LYMPHOCYTE [3]: 93.33%
MEAN CORPUSCULAR HEMOGLOBIN [3]: 24.3 pg
MEAN CORPUSCULAR HEMOGLOBIN CONCENTRATION [3]: 38.03 G/DL
MEAN CORPUSCULAR VOLUME [3]: 64 fL
MONOCYTE [3]: 0.67%
NEUTROPHIL [3]: 5.33%
NUCLEATED RED BLOOD CELLS [3]: 0.33 /100WBC
PLATELET COUNT [3]: 1219.67 x10E3/uL
ALANINE AMINOTRANSFERASE [3]: 60.67 u/L
ALBUMIN [3]: 3.7 G/DL
ALKALINE PHOSPHATASE [3]: 729.67 u/L
ASPARTATE AMINOTRANSFERASE [3]: 65.67 u/L
BLOOD UREA NITROGEN [3]: 11.33 mg/dL
CARBON DIOXIDE [3]: 26.33 mmol/L
CHLORIDE [3]: 103.33 MEQ/L
CHOLESTEROL [3]: 19.33 mg/dL
CREATINE PHOSPHOKINASE [3]: 162.33 u/L
CREATININE [3]: 0.19 mg/dL
GLUCOSE [3]: 151.33 mg/dL
LACTATE DEHYDROGENASE [3]: 62 u/L
LIPASE [3]: 9.33 u/L
PHOSPHORUS [3]: 8.9 mg/dL
POTASSIUM [3]: 4.57 MEQ/L
SODIUM [3]: 146.9 MEQ/L
TOTAL BILIRUBIN [3]: 0.13 mg/dL
TOTAL PROTEIN [3]: 6.03 G/DL
URIC ACID [3]: 0.5 mg/dL
